Measured values: patent US12559529B2, “NPY2 receptor agonists” (Boehringer Ingelheim International GmbH, priority 2019, dated 2026)
*1 amine or outer side, *2 acyl side, *3 side chain or, on linkers, in order; H or OH if unused. Where a SMILES comes first, the peptide text is derived from it. Side-chain parts run from the residue outwards. The star is where a group is joined. C18 diacid = O=C(O)CCCCCCCCCCCCCCCCC(=O)*; γGlu = O=C(O)[C@H](CCC(=O)[*:2])N[*:1]; Isovaleryl = CC(C)CC(=O)*; AEEA = NCCOCCOCC(=O)O

The molecules below were run against T1, Human Neuropeptide Y2 Receptor (Homo sapiens, UniProt P49146) (assay: Radioligand binding competition assay (RLB)). Conditions: Table 3; human 125I-PYY (1-36) 0.02 nM, Y2 receptor membranes; read-out: Ki.
T1 construct: purchased CHEMICON HTS066M
T1 sequence (P49146 1-381): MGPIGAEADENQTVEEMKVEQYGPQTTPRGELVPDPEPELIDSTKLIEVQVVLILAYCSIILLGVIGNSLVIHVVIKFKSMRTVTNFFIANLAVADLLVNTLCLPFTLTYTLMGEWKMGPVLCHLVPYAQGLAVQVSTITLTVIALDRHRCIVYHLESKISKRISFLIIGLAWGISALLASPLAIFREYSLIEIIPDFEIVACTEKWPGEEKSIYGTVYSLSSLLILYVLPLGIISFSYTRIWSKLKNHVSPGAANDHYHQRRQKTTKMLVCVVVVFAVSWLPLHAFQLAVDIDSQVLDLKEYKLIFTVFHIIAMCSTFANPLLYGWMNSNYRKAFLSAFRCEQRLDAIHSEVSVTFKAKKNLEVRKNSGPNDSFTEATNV
Method in brief: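 IC50 values come from nonlinear regression of sigmoidal dose-response curves of filter-bound radioactivity. Peptides competed with radioligand at human Y2 receptor membranes (0.5 μg protein/well) for 2 h at room temperature in pH 7.4 HEPES buffer containing Mg2+, Ca2+ and 0.2% ovalbumin.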

Ki [nM]	SMILES
4.36	CC(C)CC(=O)N[C@@H](C)C(=O)N1CCC[C@H]1C(=O)N[C@@H](CCC(=O)O)C(=O)N[C@@H](CCCCNC(=O)COCCOCCNC(=O)COCCOCCNC(=O)CC[C@H](NC(=O)CCCCCCCCCCCCCCCCC(=O)O)C(=O)O)C(=O)N1CCC[C@H]1C(=O)N[C@@H](CCC(=O)O)C(=O)N[C@@H](CCC(=O)O)C(=O)N[C@@H](CCC(=O)O)C(=O)N[C@@H](C)C(=O)N[C@@H](CO)C(=O)N[C@@H](C)C(=O)N[C@@H](CCC(=O)O)C(=O)N[C@@H](CCC(=O)O)C(=O)N[C@@H](CC(C)C)C(=O)N[C@@H](CCC(N)=O)C(=O)N[C@@H](CCCNC(=N)N)C(=O)N[C@@H](Cc1ccc(O)cc1)C(=O)N[C@@H](Cc1ccc(O)cc1)C(=O)N[C@H](C(=O)N[C@@H](CO)C(=O)N[C@@H](CC(C)C)C(=O)N[C@@H](CCCNC(=N)N)C(=O)N[C@@H](Cc1c[nH]cn1)C(=O)N[C@@H](Cc1ccc(O)cc1)C(=O)N[C@@H](Cc1ccc(O)cc1)C(=O)N[C@@H](CC(N)=O)C(=O)N[C@@H](Cc1c[nH]c2ccccc12)C(=O)N[C@@H](CC(C)C)C(=O)N[C@H](C(=O)N[C@@H](CCCNC(=N)N)C(=O)N[C@@H](CCC(N)=O)C(=O)N[C@@H](CCCNC(=N)N)C(=O)N[C@@H](Cc1ccc(O)cc1)C(N)=O)[C@@H](C)O)C(C)C [Compound 25, N{alpha-4}-(3-methylbutanoyl)-N{epsilon-7}-[2-(2-{2-[2-(2-{2-[(4S)-4-carboxy-4-(17-carboxyheptadecanamido)butanamido]ethoxy}ethoxy)acetamido]ethoxy}ethoxy)acetamido]-[4A,7K,9E,11E,14A,18Q,22V,28Y,30W,31L]hPYY (4-36)]
0.77	CC(C)CC(=O)N[C@@H](C)C(=O)N1CCC[C@H]1C(=O)N[C@@H](CCC(=O)O)C(=O)N[C@@H](CCCCNC(=O)COCCOCCNC(=O)COCCOCCNC(=O)CC[C@H](NC(=O)CCCCCCCCCCCCCCCCC(=O)O)C(=O)O)C(=O)N1CCC[C@H]1C(=O)N1CCC[C@H]1C(=O)N[C@@H](CCC(=O)O)C(=O)N[C@@H](CC(=O)O)C(=O)N[C@@H](C)C(=O)N[C@H](C(=O)N1CCC[C@H]1C(=O)N[C@@H](CCC(=O)O)C(=O)N[C@@H](CCC(=O)O)C(=O)N[C@@H](CC(C)C)C(=O)N[C@@H](CCC(N)=O)C(=O)N[C@@H](CCCNC(=N)N)C(=O)N[C@@H](Cc1ccc(O)cc1)C(=O)N[C@@H](Cc1ccc(O)cc1)C(=O)N[C@H](C(=O)N[C@@H](CO)C(=O)N[C@@H](CC(C)C)C(=O)N[C@@H](CCCNC(=N)N)C(=O)N[C@@H](Cc1c[nH]cn1)C(=O)N[C@@H](Cc1ccc(O)cc1)C(=O)N[C@@H](Cc1ccc(O)cc1)C(=O)N[C@@H](CC(N)=O)C(=O)N[C@@H](Cc1c[nH]c2ccccc12)C(=O)N[C@@H](CC(C)C)C(=O)N[C@H](C(=O)N[C@@H](CCCNC(=N)N)C(=O)N[C@@H](CCC(N)=O)C(=O)N[C@@H](CCCNC(=N)N)C(=O)N[C@@H](Cc1ccc(O)cc1)C(N)=O)[C@@H](C)O)C(C)C)[C@@H](C)O [Compound 26, N{alpha-4}-(3-methylbutanoyl)-N{epsilon-7}-[2-(2-{2-[2-(2-{2-[(4S)-4-carboxy-4-(17-carboxyheptadecanamido)butanamido]ethoxy}ethoxy)acetamido]ethoxy}ethoxy)acetamido]-[4A,7K,9P,13T,18Q,22V,28Y,30W,31L]hPYY (4-36)]
0.96	CC(C)CC(=O)N[C@@H](C)C(=O)N1CCC[C@H]1C(=O)N[C@@H](CCC(=O)O)C(=O)N[C@@H](CCCCNC(=O)COCCOCCNC(=O)COCCOCCNC(=O)CC[C@H](NC(=O)CCCCCCCCCCCCCCCCC(=O)O)C(=O)O)C(=O)N1CCC[C@H]1C(=O)N1CCC[C@H]1C(=O)N[C@@H](CCC(=O)O)C(=O)N[C@@H](CC(=O)O)C(=O)N[C@@H](C)C(=O)N[C@@H](CCC(=O)O)C(=O)N1CCC[C@H]1C(=O)N[C@@H](CCC(=O)O)C(=O)N[C@@H](CCC(=O)O)C(=O)N[C@@H](CC(C)C)C(=O)N[C@@H](CCC(N)=O)C(=O)N[C@@H](CCCNC(=N)N)C(=O)N[C@@H](Cc1ccc(O)cc1)C(=O)N[C@@H](Cc1ccc(O)cc1)C(=O)N[C@H](C(=O)N[C@@H](CO)C(=O)N[C@@H](CC(C)C)C(=O)N[C@@H](CCCNC(=N)N)C(=O)N[C@@H](Cc1c[nH]cn1)C(=O)N[C@@H](Cc1ccc(O)cc1)C(=O)N[C@@H](Cc1ccc(O)cc1)C(=O)N[C@@H](CC(N)=O)C(=O)N[C@@H](Cc1c[nH]c2ccccc12)C(=O)N[C@@H](CC(C)C)C(=O)N[C@H](C(=O)N[C@@H](CCCNC(=N)N)C(=O)N[C@@H](CCC(N)=O)C(=O)N[C@@H](CCCNC(=N)N)C(=O)N[C@@H](Cc1ccc(O)cc1)C(N)=O)[C@@H](C)O)C(C)C [Compound 27, N{alpha-4}-(3-methylbutanoyl)-N{epsilon-7}-[2-(2-{2-[2-(2-{2-[(4S)-4-carboxy-4-(17-carboxyheptadecanamido)butanamido]ethoxy}ethoxy)acetamido]ethoxy}ethoxy)acetamido]-[4A,7K,9P,13E,18Q,22V,28Y,30W,31L]hPYY (4-36)]
6.03	CC(C)CC(=O)N[C@@H](C)C(=O)N1CCC[C@H]1C(=O)N[C@@H](CCC(=O)O)C(=O)N[C@@H](CCCCNC(=O)COCCOCCNC(=O)COCCOCCNC(=O)CC[C@H](NC(=O)CCCCCCCCCCCCCCCCC(=O)O)C(=O)O)C(=O)N1CCC[C@H]1C(=O)N[C@@H](CCC(=O)O)C(=O)N[C@@H](CCC(=O)O)C(=O)N[C@@H](CC(=O)O)C(=O)N[C@H](C(=O)N[C@@H](CO)C(=O)N1CCC[C@H]1C(=O)N[C@@H](CCC(=O)O)C(=O)N[C@@H](CCC(=O)O)C(=O)N[C@@H](CC(C)C)C(=O)N[C@@H](CCC(N)=O)C(=O)N[C@@H](CCCNC(=N)N)C(=O)N[C@@H](Cc1ccc(O)cc1)C(=O)N[C@@H](Cc1ccc(O)cc1)C(=O)N[C@H](C(=O)N[C@@H](CCC(=O)O)C(=O)N[C@@H](CC(C)C)C(=O)N[C@@H](CCCNC(=N)N)C(=O)N[C@@H](Cc1c[nH]cn1)C(=O)N[C@@H](Cc1ccc(O)cc1)C(=O)N[C@@H](Cc1ccc(O)cc1)C(=O)N[C@@H](CC(N)=O)C(=O)N[C@@H](Cc1c[nH]c2ccccc12)C(=O)N[C@@H](CC(C)C)C(=O)N[C@H](C(=O)N[C@@H](CCCNC(=N)N)C(=O)N[C@@H](CCC(N)=O)C(=O)N[C@@H](CCCNC(=N)N)C(=O)N[C@@H](Cc1ccc(O)cc1)C(N)=O)[C@@H](C)O)C(C)C)[C@@H](C)O [Compound 28, N{alpha-4}-(3-methylbutanoyl)-N{epsilon-7}-[2-(2-{2-[2-(2-{2-[(4S)-4-carboxy-4-(17-carboxyheptadecanamido)butanamido]ethoxy}ethoxy)acetamido]ethoxy}ethoxy)acetamido]-[4A,7K,9E,12T,18Q,22V,23E,28Y,30W,31L]hPYY (4-36)]
4.84	CC(C)CC(=O)N[C@@H](C)C(=O)N1CCC[C@H]1C(=O)N[C@@H](CCC(=O)O)C(=O)N[C@@H](CCCCNC(=O)COCCOCCNC(=O)COCCOCCNC(=O)CC[C@H](NC(=O)CCCCCCCCCCCCCCCCC(=O)O)C(=O)O)C(=O)N1CCC[C@H]1C(=O)N[C@@H](CCC(=O)O)C(=O)N[C@@H](CCC(=O)O)C(=O)N[C@@H](CC(=O)O)C(=O)N[C@H](C(=O)N[C@@H](CO)C(=O)N1CCC[C@H]1C(=O)N[C@@H](CCC(=O)O)C(=O)N[C@@H](CCC(=O)O)C(=O)N[C@@H](CC(C)C)C(=O)N[C@@H](CCC(N)=O)C(=O)N[C@@H](CCCNC(=N)N)C(=O)N[C@@H](Cc1ccc(O)cc1)C(=O)N[C@@H](CCC(=O)O)C(=O)N[C@H](C(=O)N[C@@H](CO)C(=O)N[C@@H](CC(C)C)C(=O)N[C@@H](CCCNC(=N)N)C(=O)N[C@@H](Cc1c[nH]cn1)C(=O)N[C@@H](Cc1ccc(O)cc1)C(=O)N[C@@H](Cc1ccc(O)cc1)C(=O)N[C@@H](CC(N)=O)C(=O)N[C@@H](Cc1c[nH]c2ccccc12)C(=O)N[C@@H](CC(C)C)C(=O)N[C@H](C(=O)N[C@@H](CCCNC(=N)N)C(=O)N[C@@H](CCC(N)=O)C(=O)N[C@@H](CCCNC(=N)N)C(=O)N[C@@H](Cc1ccc(O)cc1)C(N)=O)[C@@H](C)O)C(C)C)[C@@H](C)O [Compound 32, N{alpha-4}-(3-methylbutanoyl)-N{epsilon-7}-[2-(2-{2-[2-(2-{2-[(4S)-4-carboxy-4-(17-carboxyheptadecanamido)butanamido]ethoxy}ethoxy)acetamido]ethoxy}ethoxy)acetamido]-[4A,7K,9E,12T,18Q,21E,22V,28Y,30W,31L]hPYY (4-36)] (Isovaleryl-APEK([AEEA-AEEA-γGlu-C18 diacid])PEEDTSPEELQRYEVSLRHYYNWLTRQRY-NH2)
